Data from patent publication US6355799B1, “Substituted benzene compounds, process for their preparation, and herbicidal and defoliant compositions containing them” (ISK Americas Incorporated, priority 1997, dated 2002).

Key:
Type in all cases: in vivo
[1] = system: redroot pigweed (Amaranthus retroflexus, AMARE); test: Pre-emerge test, greenhouse herbicide activity screening; conditions: pre-emerge, 14 days after application, scale 0-100
Method in brief: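 Rating: 0–100 visual injury, 14 DAA. Application: acetone, 187 l/ha, 15–1000 g ai/ha, flat-fan track sprayer with nozzle 40–45 cm above soil or canopy. Post-emerge runs used 0.25% v/v surfactant on 2–3 leaf plants.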

[2] = system: barnyardgrass (Echinochloa crus-galli, ECHCG); test: as above; conditions: pre-emerge, 14 days after application, scale 0-100
From the text: (§1) A standard greenhouse herbicide activity screening system was used to evaluate the herbicidal efficacy and crop safety of these test compounds. Seven broadleaf weed species including redroot pigweed (Amaranthus retroflexus, AMARE, velvetleaf (Abutilon theophrasti, ABUTH), sicklepod (Cassia obtusifolia, CASOB), ivyleaf morningglory (Ipomoea hederacea, IPOHE), lambsquarters (Chenopodium album, CHEAL), common ragweed (Ambrosia artemisizfolia L., AMBEL), and cocklebur (Xanthium strumarium, XANST) were used as test species. Four grass weed species including green foxtail (Setaria viridis, SETVI), barnyardgrass (Echinochloa crus-galli, ECHCG), johnsongrass (Sorghum halepense, SORHA), and large crabgrass (Digitaria sanguinalis, DIGSA) were also used. In addition, three crop species, field corn (Zea mays L., var. Dekalb 535, CORN), soybean (Glycine max L., var. Pella 86, SOY), and is upland rice (Oryza sp., var. Tebonnet, RICE) were included.
(§2) All plants were grown in 10 cm square plastic pots which were filled with a sandy loam soil mix. For pre-emerge tests, seeds were planted one day prior to application of the test compounds. For post-emerge tests, seeds were planted 8-21 days prior to the test to allow emergence and good foliage development prior to application of the test substances. At the time of the post-emerge application, plants of all species were usually at the 2-3 leaf stage of development.
(§3) All test compounds Were dissolved in acetone and applied to the test units in a volume of 187 l /ha. Test materials were applied at rates ranging from 15 g ai/ha to 1000 g ai/ha using a track sprayer equipped with a TJ8001E even flow flat fan spray nozzle. Plants were arranged on a shelf so that the top of the canopy (post-emerge) or top of the soil surface (pre-emerge) was 40-45 cm below the nozzle. Pressurized air was used to force the test solution through the nozzle as it was mechanically advanced (via electrically driven chain drive) over the top of all test plants/pots. This application simulates a typical commercial field herbicide application.
(§4) In the post-emerge test, a commercial non-ionic surfactant was also included (0.25% v/v) to enhance wetting of the leaf surfaces of target plants. Immediately after application, test units of the pre-emerge applications were watered at the soil surface to incorporate the test materials. Subsequently, these test units were bottom-watered. Post-emerge test units were always bottom-watered.
(§5) At 14 days after application of the test materials, phytotoxicity ratings were recorded. A rating scale of 0-100 was used as previously described in Research Methods in Weed Science, 2nd edition, B. Truelove, Ed., Southern Weed Science Society, Auburn University, Auburn, Ala. 1977. Briefly, “0” corresponds to no damage and “100” corresponds to complete death of all plants in the test unit. This scale was used both to determine efficacy against weed species and damage to crop species. Herbicide activity data for various compounds of this invention, which are shown by compound No. in Tables 1-8, are shown in Tables 11 and 12.

[3] = system: green foxtail (Setaria viridis, SETVI); test: as above; conditions: pre-emerge, 14 days after application, scale 0-100
From the text: as §1, §2, §3, §4, §5

[4] = system: ivyleaf morningglory (Ipomoea hederacea, IPOHE); test: as above; conditions: pre-emerge, 14 days after application, scale 0-100
From the text: as §1, §2, §3, §4, §5

[5] = system: lambsquarters (Chenopodium album, CHEAL); test: as above; conditions: pre-emerge, 14 days after application, scale 0-100
From the text: as §1, §2, §3, §4, §5

[6] = system: large crabgrass (Digitaria sanguinalis, DIGSA); test: as above; conditions: pre-emerge, 14 days after application, scale 0-100
From the text: as §1, §2, §3, §4, §5

[7] = system: sicklepod (Cassia obtusifolia, CASOB); test: as above; conditions: pre-emerge, 14 days after application, scale 0-100
From the text: as §1, §2, §3, §4, §5

[8] = system: velvetleaf (Abutilon theophrasti, ABUTH); test: as above; conditions: pre-emerge, 14 days after application, scale 0-100
From the text: as §1, §2, §3, §4, §5

[9] = system: field corn (Zea mays L., var. Dekalb 535, CORN); test: Pre-emerge test, crop safety; conditions: pre-emerge, 14 days after application, scale 0-100
From the text: as §1, §2, §3, §4, §5

[10] = system: upland rice (Oryza sp., var. Tebonnet, RICE); test: Pre-emerge test, crop safety; conditions: pre-emerge, 14 days after application, scale 0-100
From the text: as §1, §2, §3, §4, §5

[11] = system: barnyardgrass (Echinochloa crus-galli, ECHCG); test: Post-emerge test, greenhouse herbicide activity screening; conditions: post-emerge, 14 days after application, rating scale 0-100
From the text: as §1, §2, §3, §4, §5

[12] = system: green foxtail (Setaria viridis, SETVI); test: as above; conditions: post-emerge, 14 days after application, rating scale 0-100
From the text: as §1, §2, §3, §4, §5

[13] = system: ivyleaf morningglory (Ipomoea hederacea, IPOHE); test: as above; conditions: post-emerge, 14 days after application, rating scale 0-100
From the text: as §1, §2, §3, §4, §5

[14] = system: lambsquarters (Chenopodium album, CHEAL); test: as above; conditions: post-emerge, 14 days after application, rating scale 0-100
From the text: as §1, §2, §3, §4, §5

[15] = system: large crabgrass (Digitaria sanguinalis, DIGSA); test: as above; conditions: post-emerge, 14 days after application, rating scale 0-100
From the text: as §1, §2, §3, §4, §5

[16] = system: redroot pigweed (Amaranthus retroflexus, AMARE); test: as above; conditions: post-emerge, 14 days after application, rating scale 0-100
From the text: as §1, §2, §3, §4, §5

[17] = system: sicklepod (Cassia obtusifolia, CASOB); test: as above; conditions: post-emerge, 14 days after application, rating scale 0-100
From the text: as §1, §2, §3, §4, §5

[18] = system: velvetleaf (Abutilon theophrasti, ABUTH); test: as above; conditions: post-emerge, 14 days after application, rating scale 0-100
From the text: as §1, §2, §3, §4, §5

[19] = system: field corn (Zea mays L., var. Dekalb 535, CORN); test: Post-emerge test, crop safety; conditions: post-emerge, 14 days after application, rating scale 0-100
From the text: as §1, §2, §3, §4, §5

[20] = system: upland rice (Oryza sp., var. Tebonnet, RICE); test: Post-emerge test, crop safety; conditions: post-emerge, 14 days after application, rating scale 0-100
From the text: as §1, §2, §3, §4, §5

C=Cc1ccc(C(=O)N(C(=O)c2ccc(C=C)cc2)c2c(OC)c(Br)cc(F)c2-n2c(=O)cc(C(F)(F)F)n(C)c2=O)cc1 [2-183]
phytotoxicity rating AMARE ([1]; 63 g ai/ha): 0 | phytotoxicity rating AMARE ([1]; 250 g ai/ha): 30 | phytotoxicity rating ECHCG ([2]; 63 g ai/ha): 0 | phytotoxicity rating ECHCG ([2]; 250 g ai/ha): 0 | phytotoxicity rating SETVI ([3]; 63 g ai/ha): 0 | phytotoxicity rating SETVI ([3]; 250 g ai/ha): 0 | phytotoxicity rating IPOHE ([4]; 63 g ai/ha): 0 | phytotoxicity rating IPOHE ([4]; 250 g ai/ha): 0 | phytotoxicity rating CHEAL ([5]; 63 g ai/ha): 0 | phytotoxicity rating CHEAL ([5]; 250 g ai/ha): 40 | phytotoxicity rating DIGSA ([6]; 63 g ai/ha): 0 | phytotoxicity rating DIGSA ([6]; 250 g ai/ha): 0 | phytotoxicity rating CASOB ([7]; 63 g ai/ha): 0 | phytotoxicity rating CASOB ([7]; 250 g ai/ha): 0 | phytotoxicity rating ABUTH ([8]; 63 g ai/ha): 0 | phytotoxicity rating ABUTH ([8]; 250 g ai/ha): 10 | phytotoxicity rating CORN (crop damage) ([9]; 63 g ai/ha): 0 | phytotoxicity rating CORN (crop damage) ([9]; 250 g ai/ha): 0 | phytotoxicity rating RICE (crop damage) ([10]; 63 g ai/ha): 0 | phytotoxicity rating RICE (crop damage) ([10]; 250 g ai/ha): 0 | ECHCG phytotoxicity rating ([11]; 63 g ai/ha): 0 | ECHCG phytotoxicity rating ([11]; 250 g ai/ha): 0 | SETVI phytotoxicity rating ([12]; 63 g ai/ha): 0 | SETVI phytotoxicity rating ([12]; 250 g ai/ha): 0 | IPOHE phytotoxicity rating ([13]; 63 g ai/ha): 0 | IPOHE phytotoxicity rating ([13]; 250 g ai/ha): 40 | CHEAL phytotoxicity rating ([14]; 63 g ai/ha): 0 | CHEAL phytotoxicity rating ([14]; 250 g ai/ha): 80 | DIGSA phytotoxicity rating ([15]; 63 g ai/ha): 0 | DIGSA phytotoxicity rating ([15]; 250 g ai/ha): 0 | AMARE phytotoxicity rating ([16]; 63 g ai/ha): 0 | AMARE phytotoxicity rating ([16]; 250 g ai/ha): 10 | CASOB phytotoxicity rating ([17]; 63 g ai/ha): 0 | CASOB phytotoxicity rating ([17]; 250 g ai/ha): 0 | ABUTH phytotoxicity rating ([18]; 63 g ai/ha): 0 | ABUTH phytotoxicity rating ([18]; 250 g ai/ha): 50 | CORN phytotoxicity rating (crop damage) ([19]; 63 g ai/ha): 0 | CORN phytotoxicity rating (crop damage) ([19]; 250 g ai/ha): 0 | RICE phytotoxicity rating (crop damage) ([20]; 63 g ai/ha): 0 | RICE phytotoxicity rating (crop damage) ([20]; 250 g ai/ha): 0
